Experimental findings from patent US11318134B2, “Benzamide compounds” (priority 2018, dated 2022) are described below.

Like-named read-outs stand apart in the source and are kept apart here.

Assay [1] concerns the target T1, Bcl-XL (Homo sapiens (Human), UniProt Q07817). The experiment in a line: Bcl-XL HTRF assay (FAM-Bad peptide). In kind it is binding. The settings on record: read-out: Bc1-XL IC50. (In general: Time-resolved FRET reads energy transfer from a long-lived donor to a nearby acceptor.)
For assay [2], the system named is RS4;11 cells. Kind of assay: RS4;11 cell proliferation assay (CellTiter-Glo). The class given is cell-based. Particulars: Homo sapiens, RS4-11, 48 h, read-out: RS4;11 (nM), CTG IC50. The method, then:
(§1) Cell proliferation was measured using the CellTiter-Glo® Luminescent Cell Viability Assay. The assay involved the addition of a single reagent (CellTiter-Glo® Reagent) directly to cells cultured in serum-supplemented medium.
(§2) Each compound evaluated was prepared as a DMSO stock solution (10 mM). Compounds were tested in duplicate on each plate, with a 10-point serial dilution curve (1:3 dilution). Compound treatment (1.0 μL) was added from the compound dilution plate to the cell plate. The highest compound concentration was 10 μM (final), with a 0.1% final DMSO concentration. Plates were then incubated at 37° C., 5% CO2. After 48 h of compound treatment for RS4;11 or 72 h for NCI-H1963, cell plates were equilibrated at rt for approximately 30 mins. An equi-volume amount of CellTiter-Glo® Reagent (40 μL) was added to each well. […] Luminescence was recorded using a Envision plate reader according to CellTiter-Glo protocol. IC50 of each compound was calculated using GraphPad Prism by nonlinear regression analysis.

The target in assay [3] is T2, Bcl-2 (Homo sapiens (Human), UniProt P10415). Kind of assay: Bcl-2 protein family binding assay (Bcl2scan platform), Bcl-2. Particulars: BIM peptide ligand, 11-point dilution, read-out: Bc1-2 Kd (nm). The protocol:
(§3) E. coli were grown to log-phase and infected with T7 phage from a frozen stock (multiplicity of infection=0.4) and incubated with shaking at 32° C. until lysis (90-150 minutes). The lysates were centrifuged (5,000×g) and filtered (0.2 μm) to remove cell debris. […] The liganded beads were blocked with excess biotin and washed with blocking buffer (SeaBlock (Pierce), 1% BSA, 0.05% Tween 20, 1 mM DTT) to remove unbound ligand and to reduce non-specific phage binding. […] Test compounds were prepared as 100× stocks in 100% DMSO. Kds were determined using an 11-point 3-fold compound dilution series with one DMSO control point. […] The compounds were then diluted directly into the assays such that the final concentration of DMSO was 0.9%. All reactions performed in polypropylene 384-well plates. Each was a final volume of 0.02 ml. […] The BCL2 concentration in the eluates was measured by qPCR. Binding constants (Kds) were calculated with a standard dose-response curve using the Hill equation:
(§4) [formula] The Hill Slope was set to −1. Curves were fitted using a non-linear least square fit with the Levenberg-Marquardt algorithm.

For assay [4], the target named is T1, Bcl-XL. The experiment in a line: Bcl-2 protein family binding assay (Bcl2scan platform), Bcl-XL. Particulars: BIM peptide ligand, 11-point dilution, read-out: Bc1-XL Kd (nm). The protocol:
as §3, §4

Assay [5] deals with T2, Bcl-2. Kind of assay: Bcl-2 HTRF assay (FAM-Bak peptide). The class given is binding. Particulars: read-out: Bc1-2 IC50.
Assay [6] concerns NCI-H1963 cells. The experiment in a line: NCI-H1963 cell proliferation assay (CellTiter-Glo). In kind it is cell-based. The settings on record: Homo sapiens, NCI-H1963, 72 h, read-out: H1963 (nM), CTG IC50. The method, then: as §1, §2
Where [7] appears, read: HTRF, 3 nM Bcl-XL, 40 nM FAM-Bad peptide.
The mark [8] stands for this setting: HTRF, 4 nM Bcl-2, 100 nM FAM-Bak peptide.

T1 sequence (Q07817 whole entry): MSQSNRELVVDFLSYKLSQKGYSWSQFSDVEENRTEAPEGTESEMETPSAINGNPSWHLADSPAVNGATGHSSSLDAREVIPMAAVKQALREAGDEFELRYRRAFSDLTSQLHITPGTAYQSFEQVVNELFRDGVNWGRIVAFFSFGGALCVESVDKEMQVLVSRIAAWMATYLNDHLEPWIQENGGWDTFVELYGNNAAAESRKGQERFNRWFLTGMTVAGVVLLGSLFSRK
T2 sequence (P10415 whole entry): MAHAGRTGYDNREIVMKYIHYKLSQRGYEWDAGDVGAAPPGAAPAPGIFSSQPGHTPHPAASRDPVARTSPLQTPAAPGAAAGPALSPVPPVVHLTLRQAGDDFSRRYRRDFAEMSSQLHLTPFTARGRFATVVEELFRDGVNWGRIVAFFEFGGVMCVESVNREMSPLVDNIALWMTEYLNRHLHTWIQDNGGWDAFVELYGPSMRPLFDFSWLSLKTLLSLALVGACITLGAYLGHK

By Kd is commonly meant a measure of binding affinity in units of concentration. Take `CC1(C)CCC(CN2CCN(c3ccc(C(=O)NS(=O)(=O)c4ccc(NCC5(F)CCOCC5)c([N+](=O)[O-])c4)c(Oc4cnc5[nH]ccc5c4)c3)CC2)=C(C23CC(C)(C2)C3)C1` [Example 15, 2-(1H-pyrrolo[2,3-b]pyridin-5-yloxy)-4-(4-((4,4-dimethyl-2-(3-methylbicyclo[1.1.1]pentan-1-yl)cyclohex-1-enyl)methyl)piperazin-1-yl)-N-(4-((4-fluorotetrahydro-2H-pyran-4-yl)methylamino)-3-nitrophenylsulfonyl)benzamide]: the IC50 in assay [1] (setting [7]) is no less than 100 nM; in assay [2], less than 100 nM; in assay [5] (setting [8]), no more than 10 nM. In addition, the Kd in assay [3] is less than 10 nM; in assay [4], greater than 100 nM.

Turning to `CC1(C)CCC(CN2CCN(c3ccc(C(=O)NS(=O)(=O)c4ccc(NC[C@H]5CC[C@](C)(O)CC5)c([N+](=O)[O-])c4)c(Oc4cnc5[nH]ccc5c4)c3)CC2)=C(C23CC(C)(C2)C3)C1` [Example 20, 2-(1H-pyrrolo[2,3-b]pyridin-5-yloxy)-4-(4-((4,4-dimethyl-2-(3-methylbicyclo[1.1.1]pentan-1-yl)cyclohex-1-enyl)methyl)piperazin-1-yl)-N-(4-(((1r,4r)-4-hydroxy-4-methylcyclohexyl)methylamino)-3-nitrophenylsulfonyl)benzamide], the IC50 in assay [1] (setting [7]) was no less than 100 nM; in assay [2] it was less than 100 nM; in assay [5] (setting [8]) it was no more than 10 nM. For the same molecule, the Kd was less than 10 nM in assay [3] and greater than 100 nM in assay [4].

Take `CC1(C)CCC(CN2CCN(c3ccc(C(=O)NS(=O)(=O)c4ccc(NC[C@H]5CC[C@](C)(O)CC5)c([N+](=O)[O-])c4)c(Oc4cnc5[nH]ccc5c4)c3)CC2)=C(C23CC(C(F)F)(C2)C3)C1` [Example 34, 2-((1H-pyrrolo[2,3-b]pyridin-5-yl)oxy)-4-(4-((2-(3-(difluoromethyl)bicyclo[1.1.1]pentan-1l-yl)-4,4-dimethylcyclohex-1-en-1-yl)methyl)piperazin-1-yl)-N-((4-((((1r,4r)-4-hydroxy-4-methylcyclohexyl)methyl)amino)-3-nitrophenyl)sulfonyl)benzamide]: the IC50 in assay [1] (setting [7]) is 10 to 100 nM; in assay [2], less than 100 nM; in assay [5] (setting [8]), no more than 10 nM. The Kd is less than 10 nM in assay [3] and greater than 100 nM in assay [4].

For the molecule `CC1(C)CCC(C23CC(C)(C2)C3)=C(CN2CCN(c3ccc(C(=O)NS(=O)(=O)c4ccc(N[C@H](CCN5CCC(O)CC5)CSc5ccccc5)c(S(=O)(=O)C(F)(F)F)c4)cc3)CC2)C1` [Example 48, (R)-4-(4-((5,5-dimethyl-2-(3-methylbicyclo[1.1.1]pentan-1-yl)cyclohex-1-enyl)methyl)piperazin-1-yl)-N-(4-(4-(4-hydroxypiperidin-1-yl)-1-(phenylthio)butan-2-ylamino)-3-(trifluoromethylsulfonyl)phenylsulfonyl)benzamide], the IC50 in assay [1] is less than 10 nM; in assay [2] it was 100 to 1000 nM; in assay [5], less than 10 nM. The Kd in assay [3] and in assay [4] was 10 to 100 nM each time.

`CN(CCO)CC[C@H](CSc1ccccc1)Nc1ccc(S(=O)(=O)NC(=O)c2ccc(N3CCN(CC4=C(C56CC(C)(C5)C6)CC(C)(C)CC4)CC3)cc2)cc1S(=O)(=O)C(F)(F)F` [Example 49, (R)-4-(4-((4,4-dimethyl-2-(3-methylbicyclo[1.1.1]pentan-1-yl)cyclohex-1-en-1-yl)methyl)piperazin-1-yl)-N-((4-((4-((2-hydroxyethyl)(methyl)amino)-1-(phenylthio)butan-2-yl)amino)-3-((trifluoromethyl)sulfonyl)phenyl)sulfonyl)benzamide]: the IC50 in assay [1] (setting [7]) is no more than 10 nM; in assay [2] it was 100 to 1000 nM; in assay [5] (setting [8]), no more than 10 nM.

In the case of `CCC12CC(C3=C(CN4CCN(c5ccc(C(=O)NS(=O)(=O)c6ccc(N[C@H](CCN(C)CCO)CSc7ccccc7)c(S(=O)(=O)C(F)(F)F)c6)cc5)CC4)CCC(C)(C)C3)(C1)C2` [Example 50, (R)-4-(4-((2-(3-Ethylbicyclo[1.1.1]pentan-1-yl)-4,4-dimethylcyclohex-1-en-1-yl)methyl)piperazin-1-yl)-N-((4-((4-((2-hydroxyethyl)(methyl)amino)-1-(phenylthio)butan-2-yl)amino)-3-((trifluoromethyl)sulfonyl)phenyl)sulfonyl)benzamide], the IC50 in assay [1] (setting [7]) is no more than 10 nM; in assay [2], 100 to 1000 nM; in assay [5] (setting [8]), no more than 10 nM.

With `CC1(C)CCC(CN2CCN(c3ccc(C(=O)NS(=O)(=O)c4ccc(N[C@H](CCN5CCOCC5)CSc5ccccc5)c(S(=O)(=O)C(F)(F)F)c4)cc3)CC2)=C(C23CC(C(F)F)(C2)C3)C1` [Example 55, (R)-4-(4-((2-(3-(difluoromethyl)bicyclo[1.1.1]pentan-1-yl)-4,4-dimethylcyclohex-1-en-1-yl)methyl)piperazin-1-yl)-N-((4-((4-morpholino-1-(phenylthio)butan-2-yl)amino)-3-((trifluoromethyl)sulfonyl)phenyl)sulfonyl)benzamide], the figures for the IC50 in assay [1] (setting [7]), in assay [2] and in assay [5] (setting [8]) were no more than 10 nM, 100 to 1000 nM and no more than 10 nM, respectively.

Regarding `CC1(C)CCC(CN2CCN(c3ccc(C(=O)NS(=O)(=O)c4ccc(N[C@H](CCN5CCOCC5)CSc5ccccc5)c([N+](=O)[O-])c4)cc3)CC2)=C(C23CC(C(F)F)(C2)C3)C1` [Example 58, (R)-4-(4-((2-(3-(difluoromethyl)bicyclo[1.1.1]pentan-1-yl)-4,4-dimethylcyclohex-1-en-1-yl)methyl)piperazin-1-yl)-N-((4-((4-morpholino-1-(phenylthio)butan-2-yl)amino)-3-nitrophenyl)sulfonyl)benzamide], the IC50 in assay [1] (setting [7]) was no more than 10 nM; in assay [2] it was 100 to 1000 nM; in assay [5] (setting [8]), no more than 10 nM.

`CN(C)CC[C@H](CSc1ccccc1)Nc1ccc(S(=O)(=O)NC(=O)c2ccc(N3CCN(CC4=C(C56CC(C)(C5)C6)CC(C)(C)CC4)CC3)cc2)cc1S(=O)(=O)C(F)(F)F` [Example 59, (R)-4-(4-((4,4-dimethyl-2-(3-methylbicyclo[1.1.1]pentan-1-yl)cyclohex-1-en-1-yl)methyl)piperazin-1-yl)-N-((4-((4-(dimethylamino)-1-(phenylthio)butan-2-yl)amino)-3-((trifluoromethyl)sulfonyl)phenyl)sulfonyl)benzamide]: the IC50 was no more than 10 nM in assay [1] (setting [7]), 100 to 1000 nM in assay [2], 500 to 1000 nM in assay [6] and no more than 10 nM in assay [5] (setting [8]).

In the case of `O=C(NS(=O)(=O)c1ccc(N[C@H](CCN2CCC(O)CC2)CSc2ccccc2)c(S(=O)(=O)C(F)(F)F)c1)c1ccc(N2CCN(CC3=C(C45CC(C(F)F)(C4)C5)CC4(CCC4)CC3)CC2)cc1` [Example 67, (R)-4-(4-((6-(3-(difluoromethyl)bicyclo[1.1.1]pentan-1-yl)spiro[3.5]non-6-en-7-yl)methyl)piperazin-1-yl)-N-((4-((4-(4-hydroxypiperidin-1-yl)-1-(phenylthio)butan-2-yl)amino)-3-((trifluoromethyl)sulfonyl)phenyl)sulfonyl)benzamide], the results for the IC50 in assay [1] (setting [7]), in assay [2] and in assay [5] (setting [8]) were no more than 10 nM, 100 to 1000 nM and no more than 10 nM, respectively.

For `CC1(C)CCC(CN2CCN(c3ccc(C(=O)NS(=O)(=O)c4ccc(N[C@H](CCN5CCN(CCO)CC5)CSc5ccccc5)c(S(=O)(=O)C(F)(F)F)c4)cc3)CC2)=C(C23CC(C(F)F)(C2)C3)C1` [Example 69, (R)-4-(4-((2-(3-(difluoromethyl)bicyclo[1.1.1]pentan-1-yl)-4,4-dimethylcyclohex-1-en-1-yl)methyl)piperazin-1-yl)-N-((4-((4-(4-(2-hydroxyethyl)piperazin-1-yl)-1-(phenylthio)butan-2-yl)amino)-3-((trifluoromethyl)sulfonyl)phenyl)sulfonyl)benzamide], the IC50 is no more than 10 nM in assay [1] (setting [7]), 500 to 1000 nM in assay [6] and no more than 10 nM in assay [5] (setting [8]).
